Results: PubChem BioAssay (NCI)
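The compound was tested at five concentrations on cells cultured in 96-well plates, with a 48-hour exposure period. TGI denotes the concentration required for complete inhibition of growth.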 Where a SMILES comes first, the peptide text is derived from it. [ ]: non-standard residue; d: D form. The star is where a group is joined. ξ: configuration not given here. ξF = NC(Cc1ccccc1)C(=O)O; Cbz = O=C(OCc1ccccc1)*; Aib = CC(C)(N)C(=O)O

How the values were obtained:
Assay in all cases: NCI tumour cell line growth inhibition, 48 h
CCRF-CEM leukemia = tested on: CCRF-CEM leukemia
SK-OV-3 ovarian = tested on: SK-OV-3 ovarian
HCT-116 colon = tested on: HCT-116 colon
SNB-75 CNS = tested on: SNB-75 CNS
K-562 leukemia = tested on: K-562 leukemia
SK-MEL-5 melanoma = tested on: SK-MEL-5 melanoma
ACHN renal = tested on: ACHN renal
A549 NSCLC = tested on: A549 NSCLC
TK-10 renal = tested on: TK-10 renal
MOLT-4 leukemia = tested on: MOLT-4 leukemia

Compound | TGI (CCRF-CEM leukemia) [µM] | TGI (SK-OV-3 ovarian) [µM] | TGI (HCT-116 colon) [µM] | TGI (SNB-75 CNS) [µM] | TGI (K-562 leukemia) [µM] | TGI (SK-MEL-5 melanoma) [µM] | TGI (ACHN renal) [µM] | TGI (A549 NSCLC) [µM] | TGI (TK-10 renal) [µM] | TGI (MOLT-4 leukemia) [µM]
CN(C)c1ccc(N2C(=S)SC(=Nc3ccccc3)C2=Nc2ccccc2)cc1 | > 100 | > 100 | > 100 | > 100 | > 100 | > 100 |  |  |  | 
COC(=O)/C=C\Sc1ccn(/C=C\C(=O)OC)c(=S)n1 | > 100 |  |  | 43.1 | > 100 | 80.6 | 32.2 | 50.7 | 51.1 | 
CC(C)(NC(=O)OCc1ccccc1)C(=O)NC(Cc1ccccc1)C(=O)O (centres undefined) (Cbz-[Aib]-[ξF]-OH) | > 100 | > 100 | > 100 | > 100 | > 100 | > 100 |  | > 100 |  | > 100
NCCC(N)C(=O)O (centres undefined) | > 100 | > 100 | > 100 |  | > 100 | > 100 | > 100 | > 100 | > 100 | > 100
c1ccc2c(-c3cnc(-c4c[nH]c5ccccc45)cn3)c[nH]c2c1 |  | > 100 | 94.2 | 94.4 | > 100 | > 100 | > 100 | > 100 | > 100 | 
CC(C)(C)OC(=O)n1cc(C2CNC(=O)C23CCC(=O)N3Cc2ccccc2)c2ccccc21 (centres undefined) | 55.7 | 58.3 | > 100 | 38.2 | > 100 | 31.9 |  | 40.4 | 44.4 | > 100
O=C1C(Br)=CC2([N+](=O)[O-])CCNc3c(O)c4c5c(c3C2=C1Br)=NCCC=5C=N4 (centres undefined) | 1.41 | 13.3 | 1.09 | 20.5 | 2.33 | 1.33 |  | 16.3 |  | 
Oc1ccc(Cl)cc1C1=N/C(=N\CN2CCN(C/N=C3/N=C(c4cc(Cl)ccc4O)CC(c4ccccc4)N3)CC2)NC(c2ccccc2)C1 (centres undefined) | > 100 | > 100 | 46.3 | 96.8 | > 100 | > 100 | 75.6 | > 100 | > 100 | 
Cc1ccc(C(=O)N(C2CCCCC2)C2CCCCC2)cc1N=NN(C)C | 54.7 | 33.5 | 27.8 |  | 47.6 | 28.1 | 22.4 | 31.8 | 24 | 76.7
S=C1c2ccccc2NC(=NC2CCCC2)C2CSCN12 (centres undefined) | > 100 | > 100 | > 100 |  | > 100 | > 100 | > 100 | > 100 | > 100 | > 100
COc1cc(-c2nc3cc(F)ccc3s2)ccc1O | > 100 | > 100 | > 100 |  | > 100 | > 100 | > 100 | > 100 | > 100 | > 100
COc1ccc2c3c1OC1CC(O)C=CC31CCN(C)C2 (centres undefined) | > 150 | > 150 | > 150 | > 150 | > 150 | > 150 |  | > 150 |  | > 150
COc1ccc(N(C(=O)Nc2ccc(Cl)c(Cl)c2)c2ccccc2)cc1 | > 10 | > 10 | > 10 |  | > 10 | > 10 | > 10 | > 10 | > 10 | > 10
CSc1c(C(=O)Nc2ccccc2)c(N)nn1-c1ccccc1 | > 100 | > 100 | > 100 | > 100 | > 100 | > 100 |  | > 100 | > 100 | > 100
CC(=O)OC(Cc1cc(C=C(C(F)(F)F)C(F)(F)F)cc(C)n1)(C(F)(F)F)C(F)(F)F |  | > 51.9 | 2.91 | 7.02 | 4.28 | 2.82 | 2.84 | 12.4 | 6.7 | 
Cc1cc2c(cc1Cl)Sc1nnc(Nc3ccccc3)n1S2(=O)=O |  |  | 37.1 | 23.7 | > 100 | 53.8 | 30.3 | 32.7 | 43.6 | 13.5
C=CC(=O)N1C/C(=C\c2ccc(N(C)C)cc2)C(=O)/C(=C/c2ccc(N(C)C)cc2)C1 |  |  | > 100 | > 100 | > 100 | > 100 | > 100 | > 100 | > 100 | > 100
O=C(Nc1ccccc1F)c1c(O)nc2sccn2c1=O | > 10 | > 10 | > 10 | > 10 |  | > 10 | > 10 | > 10 | > 10 | > 10
